Laboratory results from patent publication US10206894B2, “Compounds for use in treatment of mucositis” (priority 2011, dated 2019).
Read-outs that look alike come from different tables or passages of the source.

Assays:
[1] = tested on: FaDu human head and neck cancer xenograft; test: Tumor growth and response to therapy in FaDu xenograft; type: in vivo, nude mice (nu/nu); details: for mice euthanized for tumor volume in excess of 1500 mm^3: vehicle groups 43.3%; for survival at Day 29: vehicle groups 26.7%; for mice euthanized for tumor ulceration: vehicle groups 30%
Protocol: Ninety (90) male nude mice (nu/nu) were divided into nine (9) groups of ten […]) mice per group. To ensure that a sufficient number of tumor-bearing animals were available for this study, a total of 100 mice were inoculated s.c. in the flank with 1×10^6 FaDu cells. FaDu (HTB-43) human head and neck cancer cells were obtained from ATCC. These cells were grown in EMEM medium supplemented with 10% Fetal Calf Serum (FCS), 1% penicillin and streptomycin, and 2 mM L-Glutamine. […] The flask was incubated at 37° C. until cells detached. Cells were then sub-cultured at a ratio of 1:3. […] Tumors were measured once every two days with micro-calipers, and tumor volume was calculated as (length×width×width)/2. Where animals were euthanized for tumor volume exceeding the maximum permissible by IACUC rules (1500 mm^3) or tumor ulceration, the last measurement was carried forward in calculations of mean tumor volume.
All animals were weighed every day and their survival recorded, to assess possible differences in animal weight among treatment groups as an indication of possible toxicity resulting from the treatments. […] Any animals whose tumor grew to over 1500 mm^3 were also euthanized.
Further analysis of the tumor volume data was performed by calculating the mean area under the curve (AUC) for the tumor volume for each animal and comparing the groups using an ANOVA on ranks test. Due to the impact of animals euthanized for tumor ulceration or volume in excess of 1500 mm^3, this analysis was performed on data to Day 15 as well as on the full data set to Day 29.

[2] = tested on: fractionated radiation and cisplatin induced oral mucositis, left buccal cheek pouch; type: in vivo; details: for peak mean mucositis score: peak on Day 19
Protocol: Seventy (70) male Syrian Golden Hamsters were used in this example. Mucositis was induced using a combination of fractionated radiation and cisplatin. Cisplatin was administered on Days 0 and 6 at a dose of 5 mg/kg by i.p. injection. Each hamster was administered a total radiation dose of 60 Gy directed to their left buccal cheek pouch split into eight equal fractions of 7.5 Gy provided on Days 0, 1, 2, 3, 6, 7, 8 and 9. Radiation was generated with a 160 kilovolt potential (15-ma) source at a focal distance of 50 cm, hardened with a 0.35 mm Cu filtration system. Irradiation targeted the left buccal pouch mucosa at a rate of 2.0 Gy/minute. Prior to irradiation, animals were anesthetized with an i.p. injection of ketamine (160 mg/mL) and xylazine (8 mg/mL). The left buccal pouch was everted, fixed and isolated using a lead shield. Test materials were administered topically to the left cheek pouch three times daily, as detailed in Table 3 at a dose of 3 mg/mL in a volume of 0.5 mL per dose, either on the days of radiation (Days 0-3, 6-9), the days on which radiation was not administered (−1, 4, 5 and 10), Days 0-12 or Days 0-35. Mucositis in the left cheek pouch was evaluated clinically starting on Day 7, and continuing on alternate days until Day 35. On Day 35, all animals were euthanized by CO2 inhalation and death was confirmed by monitoring heartbeat in accordance with USDA guidelines.
The mucositis score, weight change and survival were measured throughout the study. For the evaluation of mucositis, the animals were anesthetized with an inhalation anesthetic, and the left pouch everted. Mucositis was scored visually by comparison to a validated photographic scale, ranging from 0 for normal, to 5 for severe ulceration (as described above in Example 2). A score of 1-2 is considered to represent a mild stage of the disease, whereas a score of 3-5 is considered to indicate moderate to severe mucositis. Following visual scoring, a digital image was taken of each animal's mucosa using a standardized technique. At the conclusion of the experiment, images were randomly numbered and scored by two independent trained observers graded the photographs in blinded fashion using the above-described scale (blinded scoring).
The grade of mucositis was scored, beginning on day 7, and for every second day thereafter, through and including day 35, The effect on mucositis of each drug treatment compared to placebo was assessed according to the following parameters: the difference in the number of days hamsters in each group had ulcerative (score ≥3) mucositis and the rank sum differences in daily mucositis scores.
On each evaluation day, the number of animals with a blinded mucositis score of ≥3 in each drug treatment group was compared to the control group. Differences were compared on a cumulative basis and statistical significance was determined by chi-square analysis. Efficacy, in this analysis, is defined by a significant reduction in the number of days that a group of animals had ulcerations (scores ≥3) when compared to the control group.
For each evaluation day the scores of the control group were compared to those of the treated groups using non-parametric rank sum analysis. Treatment success was considered as a statistically significant lowering of scores in the treated group on 2 or more days from day 6 to day 28.
All animals were weighed daily and their survival recorded to assess possible differences in animal weight among treatment groups as an indication for mucositis severity and/or possible toxicity resulting from the treatments. No deaths were observed during this study.
An analysis of the severity of mucositis was performed using the Mann-Whitney rank sum analysis to compare the scores for each treatment group to the controls on each day of the analysis. In this analysis, 2 days of significant reduction in the mucositis score are generally required before it is regarded as meaningful.

N=C(N)NCCCCC(=O)Nc1cc(C(F)(F)F)cc(NC(=O)c2cc(C(=O)Nc3cc(C(F)(F)F)cc(NC(=O)CCCCNC(=N)N)c3OC3CCNC3)ncn2)c1OC1CCNC1 (centres unmarked) [Compound X] was tested, and the mean tumor volume ([1]; 0.06 mg/kg, Day 1) was 102 mm^3, the mean tumor volume ([1]; 0.06 mg/kg, Day 15) was 904 mm^3 and the mean tumor volume ([1]; 0.06 mg/kg, Day 27 when final animal in group was euthanized) was 2234 mm^3. For the same compound, the mean tumor volume ([1]; 0.3 mg/kg, Day 1) was 96 mm^3, the mean tumor volume ([1]; 0.3 mg/kg, Day 15) was 869 mm^3 and the mean tumor volume ([1]; 0.3 mg/kg, end of the study) was 1002 mm^3. For the same compound, the mean tumor volume ([1]; cisplatin plus Compound X 0.06 mg/kg, Day 1) was 100 mm^3, the mean tumor volume ([1]; cisplatin plus Compound X 0.06 mg/kg, Day 15) was 518 mm^3 and the mean tumor volume ([1]; cisplatin plus Compound X 0.06 mg/kg, end of the study) was 338 mm^3. The mean tumor volume ([1]; cisplatin plus Compound X 0.3 mg/kg, Day 1) was 104 mm^3, the mean tumor volume ([1]; cisplatin plus Compound X 0.3 mg/kg, Day 15) was 564 mm^3 and the mean tumor volume ([1]; cisplatin plus Compound X 0.3 mg/kg, end of the study) was 510 mm^3. For the same compound, the “p, tumor volume AUC to Day 15 vs vehicle control group (ANOVA on ranks)” value ([1]; cisplatin plus Compound X at 0.06 mg/kg) was 0.001, the “p, tumor volume AUC to Day 15 vs vehicle control group (ANOVA on ranks)” value ([1]; cisplatin plus Compound X at 0.3 mg/kg) was 0.002 and the “mice euthanized for tumor volume in excess of 1500 mm^3” value ([1]; groups treated with 0.06 mg/kg IP QD Days 0-28 (alone, with radiation or cisplatin)) was 46.7%. The “survival at Day 29” value ([1]; groups treated with 0.06 mg/kg) was 20%, the “mice euthanized for tumor ulceration” value ([1]; groups treated with 0.06 mg/kg) was 33.3% and the “mice euthanized for tumor volume in excess of 1500 mm^3” value ([1]; groups treated with 0.3 mg/kg IP QD Days 0-28 (alone, with radiation or cisplatin)) was 40%. For the same compound, the “survival at Day 29” value ([1]; groups treated with 0.3 mg/kg) was 36.7%, the “mice euthanized for tumor ulceration” value ([1]; groups treated with 0.3 mg/kg) was 23.3% and the mean tumor volume ([1]; radiation plus 0.06 mg/kg, Day 1) was 96 mm^3. The mean tumor volume ([1]; radiation plus 0.06 mg/kg, Day 15) was 596 mm^3, the mean tumor volume ([1]; radiation plus 0.06 mg/kg, end of the study) was 1027 mm^3 and the mean tumor volume ([1]; radiation plus 0.3 mg/kg, Day 1) was 108 mm^3. The mean tumor volume ([1]; radiation plus 0.3 mg/kg, Day 15) was 616 mm^3, the mean tumor volume ([1]; radiation plus 0.3 mg/kg, end of the study) was 1376 mm^3 and the “p, tumor volume AUC to Day 15 vs vehicle control group (ANOVA on ranks)” value ([1]; radiation plus Compound X at 0.3 mg/kg) was 0.017. The “mucositis scores vs saline control group (Mann-Whitney rank sum)” value ([2]; 3 mg/mL tid Day 0 until Day 35, Days 11 (p=0.002), 13 (p=0.023), 15-35 (p<0.001)) was “statistically significant reductions”, the “mucositis scores vs Kleptose control group (Mann-Whitney rank sum)” value ([2]; 3 mg/mL tid Day 0 until Day 35, Days 17-35 (p<0.001 for all days)) was “statistically significant reductions” and the “peak mean mucositis score” value ([2]; 3 mg/rid (in Kleptose vehicle), dosed Days 0-3 and 6-9) was 3.1. For the same compound, the “% reduction of animal days with OM scores ≥ 3” value ([2]; Fractionated Radiation) was 92.6%, the “percentage of hamsters in which an ulcer formed during the study” value ([2]; dosed Day 0 to Day 35, 100% in saline and vehicle controls) was 10% and the ulceration rate ([2]; dosed Days 0-3 and 6-9, on Day 17, continued until Day 29) was 100%. For the same compound, the “percentage of animal days with a score of 3 or higher” value ([2]; dosed Days 0-3 and 6-9, saline control 54.7%) was 58.0%, the “maximum mean mucositis score” value ([2]; dosed Days 0-12, maximum on Days 19, 21 and 23) was 3.1 and the ulceration rate ([2]; dosed Days 0-12, on Day 17, continued until Day 27) was 100%. The “percentage of animal days with a score of 3 or higher” value ([2]; dosed Days 0-12, saline control 54.7%) was 58.0%, the “maximum mean mucositis score” value ([2]; dosed Days 0-35, maximum on Days 19 and 21) was 2.1 and the ulceration rate ([2]; dosed Days 0-35, on Days 15-23 (single hamster)) was 10%. For the same compound, the “percentage of animal days with a score of 3 or higher (incidence of ulcerative oral mucositis)” value ([2]; dosed Days 0-35, saline control 54.7%, Kleptose vehicle 56.0%, p<0.001) was 3.3%, the ulceration rate ([2]; dosed Days −1, 4, 5, and 10, on Day 19 only) was 100% and the “peak mean mucositis score” value ([2]; dosed Days −1, 4, 5, and 10) was 3.1. The “percentage of animal days with a score of 3 or higher” value ([2]; dosed Days −1, 4, 5, and 10, saline control 54.7%) was 48.0%, the “mucositis scores vs control (Mann-Whitney rank sum)” value ([2]; dosed Days −1, 4, 5 and 10, Days 21 (p=0.018), 23, 25 (p=0.040), 33, 35 (p=0.036)) was “statistically significant reductions” and the “daily mean mucositis scores and number of days animals exhibited ulceration” value ([2]; fractionated radiation model, oral rinse 3 times daily, 35 day treatment regimen) was “significantly reduced”. The “adverse findings in weight gain, general behavior in the home cage, or clinical signs” value ([2]; hamster, in vivo) was “no adverse findings” and the “adverse reaction to treatment” value ([2]; hamster, in vivo) was “no evidence of any adverse reaction”.
